Measured values from EP4692089A1, “NITROGEN-CONTAINING HETEROCYCLIC COMPOUND AS AAK1 INHIBITOR” (Alicorn Pharmaceutical Co., Ltd., priority 2023, dated 2024).
Several values for one entry are separate records, joined by “and”; a condition that tells them apart may be missing. Equal values may be shown once.

Assays:
[1] = biological target: T1, AAK1 (30-330) protein (Homo sapiens, UniProt Q2M2I8); assay: AAK1 kinase assay (ADP generated, detected by HPLC); format: biochemical; conditions: 3.5 nM AAK1, 22 µM ATP, 25°C, 3 h
T1 construct: (His)6x (N); TEV protease cleavage site (N); made in house; host or cells: Escherichia coli BL21(DE3)
Excerpt: Experimental objective: The objective of this test example is to test the effect of compounds on AAK1 kinase function.
Background principle: AAK1 phosphorylates the threonine residue in the micro-subunit of AP2 (AP2M1). In this process, ATP provides phosphate groups to generate ADP. Therefore, the activity of AAK1 kinase can be evaluated by detecting the amount of ADP generated.
Expression of AAK1 (30-330) protein: The AAK1 sequence (residues 30-330) was cloned into the pET24N vector with an N-terminal (His)6x tag and a tobacco etch virus (TEV) protease cleavage site. The constructed vector was transformed into Escherichia coli BL21(DE3). When the bacteria were cultured with shaking to reach an OD value of 0.6, 1 mM IPTG was added. […] The bacterial cells were collected and subjected to ultrasonic disruption. The supernatant was obtained by centrifugation, and the protein was purified using Ni-NTA. After dialysis, the concentration and purity of the protein were determined.
The reaction mixture was incubated in a metal bath at 25°C for 3 h. The reaction was terminated by adding 1% SDS, and the amount of ADP generated was detected by HPLC. IC50 values were calculated using GraphPad software.

[2] = biological target: T2, AAK1 (Homo sapiens, UniProt Q2M2I8); assay: Effect on AP2M1 phosphorylation in 293T cells co-transfected with AAK1 and AP2M1 (Western blot, anti-p-AP2M1); format: cell-based; conditions: p-AP2M1 level, incubated 3 h
T2 construct: HA; expressed in transfected cells; host or cells: 293T cells
Excerpt: Experimental objective: The objective of this test example is to determine the effect of compounds on AP2M1 phosphorylation in cells.
Background principle: Adaptor-associated kinase 1 (AAK1), also known as AP2-associated kinase 1, is a 104 kDa serine/threonine kinase. AAK1 interacts with the adaptor protein 2 (AP2) complex and phosphorylates the threonine residue in the micro-subunit of AP2 (AP2M1), thereby increasing its binding affinity for certain tyrosine-based or dileucine-based sorting signals of some membrane receptors. The inhibitory effect of compounds on AAK1 was evaluated by detecting the phosphorylation level of AP2M1 in cells, so as to screen candidate compounds.
On the second day, each T25 flask was co-transfected with 16 µg of plasmids (1 µg of AAK1/HA/pIRES and 15 µg of Flag/AP2MI/pcDNA) using a Lip2000 transfection reagent. On the third day, the cells were digested and resuspended, centrifuged at 1000 rpm for 5 minutes, and then seeded into 24-well plates at 450 µl per well (2 × 10^5 cells/well). Gradient dilutions of the compounds to be tested were prepared, 50 µl was added to each well, mixed thoroughly, and incubated at 37°C for 3 h. DMSO was set as a control, and cells without plasmid transfection were set as a blank control. After incubation, the cells were collected and washed twice with PBS. The cells were lysed on ice for 30 minutes using a cell lysis buffer containing the protease inhibitor PMSF. The concentration of protein samples was determined using a BCA kit. Protein electrophoresis: The voltage for the stacking gel was set at 60 V, and that for the separating gel was set at 120 V. After electrophoresis, electrotransfer was initiated. Electrotransfer conditions were set at 250 mA for 2 h. Blocking with 5% BSA was performed for 1 h. A specific primary antibody, anti-p-AP2M1, was added, and incubation was carried out overnight at 4°C on a shaker. Washing with TBST was conducted 4 times, with 2.5 minutes each time. A secondary antibody was incubated on a shaker at room temperature for 1 h. Washing with TBST was conducted 4 times, with 2.5 minutes each time. ECL was used for development to detect the expression level of p-AP2M1. Western blot bands were processed and converted using Image J and GraphPad software to calculate IC50.
IC50 (half maximal inhibitory concentration) refers to the half-inhibitory concentration of the measured antagonist. It can indicate the concentration of a certain drug or substance (inhibitor) that achieves half of the inhibition effect on certain biological processes (or certain substances involved in these processes, such as enzymes, cellular receptors, or microorganisms).

[3] = Pharmacokinetic test in SD rats
Procedure: Experimental objective: The objective of this experimental example is to test the pharmacokinetic profile of compounds in SD rats.
Route of administration: The animals were weighed before administration, and the dose was calculated based on their body weight. Administration was performed via intravenous injection and oral gavage.
Blood collection time points: After administration, for IV group: 0.083 h, 0.25 h, 0.5 h, 1 h, 2 h, 4 h, 8 h, and 24 h; for PO group: 0.25 h, 0.5 h, 1 h, 2 h, 4 h, 6 h, 8 h, and 24 h. Blood was collected via the jugular vein, with approximately 0.2 mL collected for each sample. The blood samples were anticoagulated with K2-EDTA and placed on ice after collection.
Plasma sample processing: After collection, the blood samples were placed on ice and centrifuged within 1 hour to separate plasma (centrifugation conditions: 6800g, 6 minutes, 2-8°C). The plasma samples were stored in a -80°C refrigerator before analysis.
Result analysis: Pharmacokinetic parameters were calculated using Phoenix WinNonlin 7.0 based on the plasma concentration data at different time points.

[4] = test system: streptozotocin (STZ)-induced peripheral neuropathic pain (DPNP) in diabetic rat models; assay: Efficacy test in diabetic peripheral neuropathic pain (DPNP), Von Frey pain threshold; format: in vivo, SD rats; conditions: for MWT (g) After modeling: before administration; for MWT (g) 2h: 2 h after administration; for MWT (g) 4 h: 4 h after administration; for MWT (g) 5 h: 5 h after administration; for MWT (g) 6h: 6 h after administration; for duration of analgesia: time after administration
Procedure: Experimental methods: After the adaptation period, the rats were tested for baseline plantar pain threshold using the Von Frey (Up-Down method) before modeling. Subsequently, except for the blank control group, all other rats were fasted for 16 hours with free access to water and then intraperitoneally injected with streptozotocin for modeling (65 mg/kg; 2 mL/kg). One week after modeling, blood was collected from the tail tip to detect blood glucose levels after a 4-hour fast. Rats with blood glucose levels higher than 16.7 mmol/L were considered diabetic.

[5] = Blood-brain distribution in DPNP model rats; conditions: SD, rat; for concentration at 6 h: oral; for Kp at 6 h: brain/plasma, po
Procedure: Experimental objective: This experiment aims to investigate the analgesic effect of test compounds on streptozotocin (STZ)-induced peripheral neuropathic pain (DPNP) in diabetic rat models and the brain-blood distribution of the compounds associated with the efficacy, via single oral gavage (ig.) administration.
After successful modeling, the baseline plantar pain threshold of the rats was tested using the Von Frey (UP-Down method) as the baseline pain threshold before administration, and the rats were evenly grouped according to their pain thresholds. The groups included a blank control group, a model group, a positive control group (1 mg/kg), a Compound 26 (0.5 mg/kg) group, and a Compound 26 (1 mg/kg) group. The next day, the rats were administered the vehicle or corresponding drugs. At 2 h, 3 h, 4 h, 5 h, and 6 h after administration, the pain threshold of the plantar region on the affected side of rats was determined using Von Frey filaments to calculate the pain threshold improvement rate of the test compounds against neuropathic pain in diabetic rats, and to observe the time-effect relationship. After the experiment, rats from groups G3-G5 (numbers 1-3 per group) were sacrificed, and plasma and brain tissue samples were collected for testing.

[6] = male, SD, rat, plasma, po, 3 mg/kg

T2 sequence (Q2M2I8 whole entry): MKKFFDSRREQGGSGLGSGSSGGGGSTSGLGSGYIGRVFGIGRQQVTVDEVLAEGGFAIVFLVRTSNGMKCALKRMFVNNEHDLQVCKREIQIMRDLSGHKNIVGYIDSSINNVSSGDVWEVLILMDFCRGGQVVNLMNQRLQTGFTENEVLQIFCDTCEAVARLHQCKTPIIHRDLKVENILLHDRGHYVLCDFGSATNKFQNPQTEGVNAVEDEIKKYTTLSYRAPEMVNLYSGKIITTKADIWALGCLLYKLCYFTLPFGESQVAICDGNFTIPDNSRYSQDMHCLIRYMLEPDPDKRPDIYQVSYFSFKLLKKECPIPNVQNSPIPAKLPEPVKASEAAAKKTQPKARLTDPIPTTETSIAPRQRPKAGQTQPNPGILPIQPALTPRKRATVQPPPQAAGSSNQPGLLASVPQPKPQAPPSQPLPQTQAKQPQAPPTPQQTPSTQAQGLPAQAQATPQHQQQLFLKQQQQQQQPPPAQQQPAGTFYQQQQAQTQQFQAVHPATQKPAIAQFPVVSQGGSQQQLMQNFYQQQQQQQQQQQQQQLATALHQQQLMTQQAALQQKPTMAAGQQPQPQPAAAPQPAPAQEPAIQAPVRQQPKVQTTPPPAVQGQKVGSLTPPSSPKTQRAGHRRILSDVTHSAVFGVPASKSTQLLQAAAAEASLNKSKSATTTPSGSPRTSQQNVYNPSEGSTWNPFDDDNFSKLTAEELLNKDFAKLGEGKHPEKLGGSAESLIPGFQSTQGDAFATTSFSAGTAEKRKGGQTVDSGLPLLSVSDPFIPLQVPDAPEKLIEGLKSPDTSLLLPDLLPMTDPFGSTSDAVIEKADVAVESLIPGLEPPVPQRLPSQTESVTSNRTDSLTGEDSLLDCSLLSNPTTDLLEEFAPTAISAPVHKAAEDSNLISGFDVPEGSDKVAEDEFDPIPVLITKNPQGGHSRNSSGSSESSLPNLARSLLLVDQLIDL
T1 sequence (Q2M2I8 30-330): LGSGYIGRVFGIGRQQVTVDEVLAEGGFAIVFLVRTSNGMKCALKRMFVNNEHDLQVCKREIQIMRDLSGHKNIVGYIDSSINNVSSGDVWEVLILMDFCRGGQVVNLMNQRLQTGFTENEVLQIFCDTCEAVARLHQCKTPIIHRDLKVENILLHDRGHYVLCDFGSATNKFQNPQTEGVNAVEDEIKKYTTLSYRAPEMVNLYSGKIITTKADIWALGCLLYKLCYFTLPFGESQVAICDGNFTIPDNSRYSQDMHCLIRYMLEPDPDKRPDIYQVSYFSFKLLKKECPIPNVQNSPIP

CC(C)C[C@](C)(N)COc1ccc(-c2c[nH]c3ncc(F)cc23)nc1C(F)F [Compound 26, (S)-1-{[2-(difluoromethyl)-6-(5-fluoro-1H-pyrrolo[2,3-b]pyridin-3-yl)pyridin-3-yl]oxy}-2,4-dimethylpentan-2-amine]
IC50 [1]: 86.3 nM
IC50 [2]: 10 to 100 nM
in vivo exposure compared with the positive control ([3]; SD rats, versus BMS-986176): approximately four times
peak concentration (Cmax) compared with the positive control ([3]; SD rats, versus BMS-986176): approximately four times
AUC(0-inf) [3, 6]: 4130 ng·h/mL
AUC(0-t) [3, 6]: 4010 ng·h/mL
Cmax [3, 6]: 325 ng/mL
MRT inf [3, 6]: 10.9 h
MRT last [3, 6]: 8.09 h
Tmax [3, 6]: 3.1 h
half-life [3, 6]: 6.98 h
MWT (g) After modeling ([4]; 0.5 mg/kg group, x±s, n=5): 6.97 ± 2.16 g
Pain threshold improvement rate 2h ([4]; 0.5 mg/kg single ig.): 50.87
MWT (g) 2h ([4]; 0.5 mg/kg single ig., x±s, n=5): 7.50 ± 2.37 g
Pain threshold improvement rate 3 h ([4]; 0.5 mg/kg single ig.): 54.93
MWT (g) 3 h ([4]; 0.5 mg/kg single ig., 3 h after administration, x±s, n=5): 9.63 ± 3.40 g
Pain threshold improvement rate 4h ([4]; 0.5 mg/kg single ig.): 35.29
MWT (g) 4 h ([4]; 0.5 mg/kg single ig., x±s, n=5): 6.23 ± 2.10 g
Pain threshold improvement rate 5 h ([4]; 0.5 mg/kg single ig.): 28.18
MWT (g) 5 h ([4]; 0.5 mg/kg single ig., x±s, n=5): 5.61 ± 3.00 g
Pain threshold improvement rate 6h ([4]; 0.5 mg/kg single ig.): 24.02
MWT (g) 6h ([4]; 0.5 mg/kg single ig., x±s, n=5): 4.82 ± 1.07 g
duration of analgesia ([4]; 0.5 mg/kg): ≤ 4 h
MWT (g) After modeling ([4]; 1 mg/kg group, x±s, n=5): 7.28 ± 2.09 g
Pain threshold improvement rate 2h ([4]; 1 mg/kg single ig.): 71.05
MWT (g) 2h ([4]; 1 mg/kg single ig., x±s, n=5): 12.72 ± 3.12 g
Pain threshold improvement rate 3 h ([4]; 1 mg/kg single ig.): 58.89
Pain threshold improvement rate 4h ([4]; 1 mg/kg single ig.): 59.53
MWT (g) 4 h ([4]; 1 mg/kg single ig., x±s, n=5): 9.96 ± 4.93 g
Pain threshold improvement rate 5 h ([4]; 1 mg/kg single ig.): 20.88
MWT (g) 5 h ([4]; 1 mg/kg single ig., x±s, n=5): 5.10 ± 1.55 g
Pain threshold improvement rate 6h ([4]; 1 mg/kg single ig.): 9.51
MWT (g) 6h ([4]; 1 mg/kg single ig., x±s, n=5): 4.05 ± 0.66 g
duration of analgesia ([4]; 1 mg/kg): ≤ 4 h
concentration at 6 h ([5]; brain, 0.5 mg/kg): 62.5 ng/mL and 688 ng/g
concentration at 6 h ([5]; brain, 1 mg/kg): 120 ng/mL and 1320 ng/g
Kp at 6 h ([5]; 0.5 mg/kg): 17.9
Kp at 6 h ([5]; 1 mg/kg): 17.6
concentration at 6 h ([5]; plasma, 0.5 mg/kg): 38.5 ng/mL
concentration at 6 h ([5]; plasma, 1 mg/kg): 75.3 ng/mL
